Consider three molecules from US12104173B2, “Method for differentiation of human pluripotent stem cell lines in suspension culture” (AGENCY FOR SCIENCE, TECHNOLOGY AND RESEARCH, priority 2018, dated 2024).

For data set [1], the system named is X13 induced pluripotent stem cells (iPSCs) on microcarriers. The following applies: 24 hours post treatment; 10 μM. Here is the method: (§1) (A) is a column graph showing two different concentrations of seven Wnt pathway activators (BIO, SB-216763, CHIR98014, Inhibitor VIII, Kenpaullone, DRF053 dihydrochloride and Wnt3a). which were selected from literature reviews and screened with CHIR99021 as a control for the disclosed hematopoietic differentiation protocol. The viability of the X13 induced pluripotent stem cells (iPSCs) on microcarriers were tabulated accordingly 24 hours post treatment of the various Wnt pathway modulators. […] (B) is a column graph showing the percentage of mesogerm induction.

The test system is the same in data set [2]. In words: screening of Wnt pathway activators: mesoderm induction (T-bra, KDR+PDGFRα−) by flow cytometry. The format is cell-based, human. The following applies: compared to other Wnt pathway modulators. The procedure:
as §1
Human induced pluripotent stem cell-microcarrier (hiPSC-MC) aggregates (1×10^6 cells/ml, or 1e6 cells/nil) were transferred to mesoderm induction medium (cytokines all from Stemcell Technologies) plus Stemline II Hematopoietic Stem Cell Expansion medium (SL2) in either 6-well ultra-low attachment plates (5 ml) under continuous agitation at 75 rpm or 125 ml spinner flasks (50 ml) under continuous agitation at 36 rpm. Daily medium changes as indicated: Day 0: SL2+30 ng/ml BMP4+50 ng/ml VEGF-165+40 ng/ml Activin A+12-15 μM CHIR-99021; Day 1: SL2+30 ng/ml BMP4+50 ng/ml VEGF-165+40 ng/ml Activin A; Day 2: SL2+20 ng/ml BMP4+30 ng/ml VEGF165+5 ng/ml Activin A+10 ng/ml bFGF+20 ng/ml SCF+0.4 ng/ml β-estradiol. Samples were collected on day 1 and day 3 for flow cytometry analysis of T-brachyury (T-Bra) and KDR/PDGFRα cells, respectively.

The test system of data set [3] is hES-3-MC aggregates (agitation culture). In words: DoE multifactorial mesoderm induction: % KDR+ cells by flow cytometry. The format is cell-based, human. The following applies: BMP4 10 to 50 ng/ml, Activin A 0-80 ng/ml, CHIR exposure 0 to 24 hours, 4 days post initiation of differentiation. The procedure:
(§2) Different doses (and/or duration of exposure) of cytokines and small-molecules with known roles in inducing mesoderm and hematopoietic differentiation were evaluated using the MODDE® software for differentiation of hES-3 MC aggregate cultures initially derived under agitation. The DoE was designed to investigate effects of BMP4 (10-50 ng/ml), Activin A (0 to 80 ng/ml), CHIR (0-15 μM at 0 to 48 hours after start of mesoderm induction). These variables generated 29 culture conditions (FIG. 2A), which were tested for their effects on percent of KDR+ cells (4 days post initiation of differentiation) and the following stage of hematopoietic precursors generation (2 weeks of culture in Blast growth medium (BGM)).
Design of experiments (DoE) using a resolution IV Fractional Factorial Design was performed using the MODDE software (Sartorius Stedim Biotech, Germany) to evaluate initial BMP4, Activin A and CHIR-99021, doses and duration of exposure for their effects on the following response factors: induction of KDR+ cells 4 days post mesoderm induction or total hematopoietic precursor cells generated 2 weeks post differentiation.
Design of experiments (DoE) using a resolution IV Fractional Factorial Design was performed using the MODDE software (Sartorius Stedim Biotech, Germany) to evaluate initial BMP4, Activin A and CHIR-99021, doses and duration of exposure for their effects on the following response factors: induction of KDR+ cells 4 days post mesoderm induction or total hematopoietic precursors generated 2 weeks post differentiation. […] Computed model with R2 scores>0.5 indicate a model of significant fit, Q2 scores>0.1 indicate a significant model while Q2>0.5 indicate a good model for estimation of future prediction precision, model validity score of <0.25 indicate statistically significant model problems and reproducibility (the variation of the replicates compared to overall variability) should be greater than 0.5. […]
(In general: A flow cytometer gives signals particle by particle.)

For data set [4] the test system is unchanged. In words: DoE: hematopoietic precursor generation, 14 days in Blast growth medium (BGM). The following applies: BMP4 10 to 50 ng/ml, Activin A 0-80 ng/ml, CHIR exposure 0 to 24 hours, 2 weeks in BGM. The format is cell-based, human. The procedure:
as §2
Design of experiments (DoE) using a resolution IV Fractional Factorial Design was performed using the MODDE software (Sartorius Stedim Biotech, Germany) to evaluate initial BMP4, Activin A and CHIR-99021, doses and duration of exposure for their effects on the following response factors: induction of KDR+ cells 4 days post mesoderm induction or total hematopoietic precursors generated 2 weeks post differentiation. […] Computed model with R2 scores>0.5 indicate a model of significant fit, Q2 scores>0.1 indicate a significant model while Q2>0.5 indicate a good model for estimation of future prediction precision, model validity score of <0.25 indicate statistically significant model problems and reproducibility (the variation of the replicates compared to overall variability) should be greater than 0.5.
Human pluripotent stem cell-microcarrier (HPSC-MC) aggregates (derived from 7 day continuous agitation conditions), equivalent to 5×10^5 cells, were seeded and differentiated in 24-well ultra-low attachment plates with Stemline II medium using multi-factorial conditions as detailed in FIG. 2A and FIG. 6A, as well as in Table 3. […]
Following 4 days of differentiation, single cells were derived from microcarrier aggregates by treatment with TrypLE. […] Fold-expansion was calculated as total number of cells derived after 2 weeks as compared to initial seeding of 1×10^5 cells.

Data set [5] concerns O-neg hiPSC line (D5) expanded in agitated microcarrier cultures. In words: DoE multifactorial analysis of KDR+ cells, O-neg hiPSC. Format: cell-based, human. The following applies: CHIR exposure for 24 hours, 4 days post differentiation. The text has this: (B) Plot of KDR levels (%) for respective conditions tested (day 4 post differentiation). Conditions 27, 28 and 29 are triplicates of the same condition tested. […] Act=Activin A; CHI=CHIR-99021 for 24 hr, CH2=CHIR-99021 from 24-48 hr; BMP=BMP4. Computed P-values are indicated below the chart.
These findings were also confirmed using an O-neg hiPSC line (D5) expanded in agitated microcarrier cultures (FIG. 6). […] In summary, from the Design of experiment analysis, it was established that a BMP4 dose of 10 to 50 ng/ml, Activin A dose of 25 to 50 ng/ml and exposure of CHIR for 24 hours at a dose of 6 to 12 μM would be efficient for the generation of KDR+ cells.
Design of experiments (DoE) using a resolution IV Fractional Factorial Design was performed using the MODDE software (Sartorius Stedim Biotech, Germany) to evaluate initial BMP4, Activin A and CHIR-99021, doses and duration of exposure for their effects on the following response factors: induction of KDR+ cells 4 days post mesoderm induction or total hematopoietic precursors generated 2 weeks post differentiation. […]

Take `Nc1nc(NCCNc2ncc(-n3ccnc3)c(-c3ccc(Cl)cc3Cl)n2)ccc1[N+](=O)[O-]` [CHIR98014]: the “viability of X13 iPSCs on microcarriers” value in data set [1] is recorded as “significantly reduced viability”. The T-bra expression entry in data set [2] (1 μM) is listed as “higher T-bra expression”.
On to `Cn1cc(C2=C(c3ccc(Cl)cc3Cl)C(=O)NC2=O)c2ccccc21` [SB-216763], for which, in data set [2] (5 μM), the T-bra expression result was “higher T-bra expression”.

B1: Activin A: dimeric protein complex comprising two beta-A subunits (protein, UniProt P08476 311-426, looked up)
Inhibin beta A chain: GLECDGKVNICCKKQFFVSFKDIGWNDWIIAPSGYHANYCEGECPSHIAGTSGSSLSFHSTVINHYRMRGHSPFANLKSCCVPTKLRPMSMLYYDDGQNIIKKDIQNMIVEECGCS
modifications: Inhibin beta A chain homodimer
notes: dimeric protein complex comprising two beta-A subunits
Turning to B1, in data set [3], the “effect of factor on percent of KDR+ cells (DoE)” value is reported as “did not significantly alter”. The “effect of factor on hematopoietic precursor generation (DoE)” value in data set [4] was “did not significantly alter”. Moreover, in data set [5], the “effect of factor on KDR+ cells (DoE)” value is reported as “significant factors for increased KDR+ cells”.
